Data taken from patent US20190064177A1, “INCORPORATING COMPETITIVE BINDING INFORMATION INTO MOLECULAR ARRAY ANALYSIS TO GENERATE FUNCTION NETWORKS OF INTERACTIONS” (ARIZONA BOARD OF REGENTS ON BEHALF OF ARIZONA STATE …, priority 2017, published 2019).

Tested on: diaphorase
Assay: fluorescently labeled diaphorase binding to peptide array with or without excess FAD
Details: for 1 microM FAD (array fluorescence of bound diaphorase) / 1 micro no FAD (array fluorescence of bound diaphorase): 1 micromolar labeled diaphorase; for 1 microM FAD (array fluorescence of bound diaphorase) / 10 microM FAD (array fluorescence of bound diaphorase): excess FAD present; for 1 microM FAD (array fluorescence of bound diaphorase) / 1 micro no FAD (array fluorescence of bound diaphorase) / 10 microM FAD (array fluorescence of bound diaphorase) / 10 microM no FAD (array fluorescence of bound diaphorase): 65535 is detector saturation; for 10 microM FAD (array fluorescence of bound diaphorase) / 10 microM no FAD (array fluorescence of bound diaphorase): 10 micromolar labeled diaphorase; for 1 microM noFAD/FAD / 10 microM noFAD/FAD: ratio of binding without FAD to binding with FAD; for 1 microM noFAD/FAD / Meas. ratio: 1 micromolar diaphorase; for 10 microM noFAD/FAD: 10 micromolar diaphorase; for Meas. ratio: ratio without/with FAD calculated from measured binding values
How it was run: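 Fluorescently labeled diaphorase, at 1 and 10 micromolar, bound to an array of about 126,000 peptides (16 amino acids; C, I, M, T omitted; GSG linker), with or without excess FAD. Fluorescence per feature scanned; 65535 marks detector saturation.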

Sequence | 1 microM FAD (array fluorescence of bound diaphorase) | 1 micro no FAD (array fluorescence of bound diaphorase) | 10 microM FAD (array fluorescence of bound diaphorase) | 10 microM no FAD (array fluorescence of bound diaphorase) | 1 microM noFAD/FAD | 10 microM noFAD/FAD | Meas. ratio
KPLAVQKVGSG (KPLAVQKVFGSG) [array peptide with C-terminal GSG linker] | 3707.5 | 34797.5 | 36814 | 46161 | 9.386 | 1.254 | 9.39
RLYPQGYGGSG [array peptide with C-terminal GSG linker] | 4541.5 | 11912 | 61747 | 65535 | 2.623 | 1.061 | 2.62
WRSVYVPNGGSG [array peptide with C-terminal GSG linker] |  |  |  |  |  |  | 2.35
FNKVLEYKWLFEG |  |  |  |  |  |  | 0.73
YRYGWQKYGGSG [array peptide with C-terminal GSG linker] |  |  |  |  |  |  | 2.43
YRWGAKHYGGSG [array peptide with C-terminal GSG linker] |  |  |  |  |  |  | 2.06
ELFGALFKGGSG [array peptide with C-terminal GSG linker] | 3403 | 2083.5 | 25315 | 12943.5 | 0.6123 | 0.5113 | 0.61
FLQFLGGSG [array peptide with C-terminal GSG linker] |  |  |  |  |  |  | 0.87
LAKQNRVEDGSS (LAKQNRVEDGSG) [array peptide with C-terminal GSG linker] | 1435 | 770.5 | 3699 | 2948.5 | 0.5369 | 0.7971 | 0.54
YVWGLELSGGSG [array peptide with C-terminal GSG linker] | 4688.5 | 2607.5 | 36320 | 17286.5 | 0.5561 | 0.4759 | 0.56
YQRHQNVFAKSGG |  |  |  |  |  |  | 2.56
RWKYQKFNGGSG [array peptide with C-terminal GSG linker] | 3860.75 | 10165 | 46173.5 | 61301.5 | 2.633 | 1.328 | 2.63
YRFQSGLPAKDGSG [array peptide with C-terminal GSG linker] | 1489.75 | 4041.25 | 20226.25 | 50316.25 | 2.713 | 2.488 | 2.71
VLSLNQVYSEGSG [array peptide with C-terminal GSG linker] | 2705.5 | 1674.75 | 21822.25 | 9853.75 | 0.619 | 0.4515 | 0.62
PVPWRHVNYAHSG |  |  |  |  |  |  | 0.69
NRKFYWNAGGSG [array peptide with C-terminal GSG linker] |  |  |  |  |  |  | 2.10
YRGAGKNKGGSG [array peptide with C-terminal GSG linker] |  |  |  |  |  |  | 1.49
DLDKAFGGSG [array peptide with C-terminal GSG linker] | 2049.75 | 607.25 | 2142.25 | 1853 | 0.2963 | 0.865 | 0.30
VERASYNLDGSG [array peptide with C-terminal GSG linker] | 2238 | 759 | 3374 | 2900.5 | 0.3391 | 0.8597 | 0.34
YRRFPYFPGGSG [array peptide with C-terminal GSG linker] |  |  |  |  |  |  | 1.60
VFGVLSQVARDGSG [array peptide with C-terminal GSG linker] | 6638 | 4250.5 | 51495.5 | 26186.5 | 0.6403 | 0.5085 | 0.64
RPLQVQRGGSG [array peptide with C-terminal GSG linker] | 14421.5 | 5406 | 41059.5 | 53243 | 0.3749 | 1.297 | 0.37
WLDLGVFPYQHLGSG [array peptide with C-terminal GSG linker] | 3433.25 | 2202 | 33610.5 | 25700.5 | 0.6414 | 0.7647 | 0.64
